Measurements reported in patent US20250145633A1, “SUBSTITUTED FURANOPYRIMIDINE COMPOUNDS AS PDE1 INHIBITORS” (Dart NeuroScience, LLC, priority 2017, published 2025).

Molecular target: human PDE1B enzyme (Homo sapiens (Human), UniProt Q01064)
Assay: IMAP TR-FRET PDE1B enzymatic assay
Assay type: biochemical
Details: negative log of half-maximal molar inhibitory concentration, 200 nM FAM-cAMP, values given as bins; for IC50: read-out: PDE1b (pIC50) (converted)
Method in brief: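 Full-length GST-tagged human PDE1B (250 pg/well) in IMAP BSA buffer with 10 U/ml calmodulin and 2.5 mM CaCl2; compound pre-incubated 5 min at room temperature, then 200 nM (final) FAM-cAMP for 30 min. IMAP binding reagent/Tb added, 1 h; TR-FRET 520/490 ratio read. IC50 from sigmoidal dose-response fit.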

Structure (SMILES)	IC50	PDE1b (pIC50)
Cc1oc2ncnc(NC3(C)CC3)c2c1C(=O)NCCc1cccc(Cl)c1 [Example 204, N-[2-(3-Chlorophenyl)ethyl]-6-methyl-4-[(1-methylcyclopropyl)amino]furo[2,3-d]pyrimidine-5-carboxamide]	10 to 100 nM	–
Cc1oc2ncnc(NC3(C)CC3)c2c1C(=O)NCCc1c[nH]c2ccc(F)cc12 [Example 207, N-[2-(5-Fluoro-1H-indol-3-yl)ethyl]-6-methyl-4-[(1-methylcyclopropyl)amino]furo[2,3-d]pyrimidine-5-carboxamide]	10 to 100 nM	–
Cc1oc2ncnc(NC3(C)CC3)c2c1C(=O)N1C[C@@H]2[C@H](C1)[C@H]2c1ccccc1 [Example 208, 6-Methyl-N-(1-methylcyclopropyl)-5-[(1R,5S,6S)-6-phenyl-azabicyclo[3.1.0]hexane-3-carbonyl]furo[2,3-d]pyrimidin-4-amine]	10 to 100 nM	–
COc1ccccc1[C@H]1[C@@H]2CN(C(=O)c3c(C)oc4ncnc(NC5(C)CC5)c34)C[C@@H]21 [Example 209, 5-[(1R,5S,6S)-6-(2-Methoxyphenyl)-3-azabicyclo[3.1.0]hexane-3-carbonyl]-6-methyl-N-(1-methylcyclopropyl)furo[2,3-d]pyrimidin-4-amine]	–	>8
C#CCNC(=O)c1c(C)oc2ncnc(NC3(C)CC3)c12 [Example 210, 6-Methyl-4-[(1-methylcyclopropyl)amino]-N-(prop-2-yn-1-yl)furo[2,3-d]pyrimidine-5-carboxamide]	10 to 100 nM	–
CCCNC(=O)c1c(C)oc2ncnc(NC3(C)CC3)c12 [Example 211, 6-Methyl-4-[(1-methylcyclopropyl)amino]-N-propylfuro[2,3-d]pyrimidine-5-carboxamide]	10 to 100 nM	–
Cc1oc2ncnc(NC3(C)CC3)c2c1C(=O)NC1CCC1 [Example 212, N-Cyclobutyl-6-methyl-4-[(1-methylcyclopropyl)amino]furo[2,3-d]pyrimidine-5-carboxamide]	10 to 100 nM	–
CCCCNC(=O)c1c(C)oc2ncnc(NC3(C)CC3)c12 [Example 213, N-Butyl-6-methyl-4-[(1-methylcyclopropyl)amino]furo[2,3-d]pyrimidine-5-carboxamide]	10 to 100 nM	–
Cc1oc2ncnc(NC3(C)CC3)c2c1C(=O)N(C)Cc1ccccn1 [Example 214, N,6-Dimethyl-4-[(1-methylcyclopropyl)amino]-N-(pyridin-2-ylmethyl)furo[2,3-d]pyrimidine-5-carboxamide]	100 to 1000 nM	–
Cc1oc2ncnc(NC3(C)CC3)c2c1C(=O)N(C)Cc1cccnc1 [Example 215, N,6-Dimethyl-4-[(1-methylcyclopropyl)amino]-N-(pyridin-3-ylmethyl)furo[2,3-d]pyrimidine-5-carboxamide]	100 to 1000 nM	–
Cc1oc2ncnc(NC3(C)CC3)c2c1C(=O)NCc1cccc(F)c1 [Example 217, N-[(3-Fluorophenyl)methyl]-6-methyl-4-[(1-methylcyclopropyl)amino]furo[2,3-d]pyrimidine-5-carboxamide]	–	>8
Cc1oc2ncnc(NC3(C)CC3)c2c1C(=O)NCc1ccccc1F [Example 218, N-[(2-Fluorophenyl)methyl]-6-methyl-4-[(1-methylcyclopropyl)amino]furo[2,3-d]pyrimidine-5-carboxamide]	10 to 100 nM	–
Cc1oc2ncnc(NC3(C)CC3)c2c1C(=O)NCCCn1ccnc1 [Example 220, N-[3-(1H-Imidazol-1-yl)propyl]-6-methyl-4-[(1-methylcyclopropyl)amino]furo[2,3-d]pyrimidine-5-carboxamide]	10 to 100 nM	–
Cc1oc2ncnc(NC3(C)CC3)c2c1C(=O)NCCc1cccs1 [Example 222, 6-Methyl-4-[(1-methylcyclopropyl)amino]-N-[2-(thiophen-2-yl)ethyl]furo[2,3-d]pyrimidine-5-carboxamide]	10 to 100 nM	–
Cc1oc2ncnc(NC3(C)CC3)c2c1C(=O)N(C)Cc1ccsc1 [Example 223, N,6-Dimethyl-4-[(1-methylcyclopropyl)amino]-N-(thiophen-3-ylmethyl)furo[2,3-d]pyrimidine-5-carboxamide]	10 to 100 nM	–
Cc1oc2ncnc(NC3(C)CC3)c2c1C(=O)N(C)Cc1cccs1 [Example 224, N,6-Dimethyl-4-[(1-methylcyclopropyl)amino]-N-(thiophen-2-ylmethyl)furo[2,3-d]pyrimidine-5-carboxamide]	10 to 100 nM	–
Cc1oc2ncnc(NC3(C)CC3)c2c1C(=O)NCCC1CCCCC1 [Example 225, N-(2-Cyclohexylethyl)-6-methyl-4-[(1-methylcyclopropyl)amino]furo[2,3-d]pyrimidine-5-carboxamide]	10 to 100 nM	–
Cc1oc2ncnc(NC3(C)CC3)c2c1C(=O)NC1CCc2ccccc21 (stereo not drawn) [Example 230, N-(2,3-Dihydro-1H-inden-1-yl)-6-methyl-4-[(1-methylcyclopropyl)amino]furo[2,3-d]pyrimidine-5-carboxamide]	10 to 100 nM	–

Structure (SMILES)	IC50	PDE1b (pIC50)
Cc1oc2ncnc(NC3(C)CC3)c2c1C(=O)N1CCc2ccccc2C1 [Example 233, 6-Methyl-N-(1-methylcyclopropyl)-5-(1,2,3,4-tetrahydroisoquinoline-2-carbonyl)furo[2,3-d]pyrimidin-4-amine]	10 to 100 nM	–
Cc1ccc(CCNC(=O)c2c(C)oc3ncnc(NC4(C)CC4)c23)cc1 [Example 235, 6-Methyl-4-[(1-methylcyclopropyl)amino]-N-[2-(4-methylphenyl)ethyl]furo[2,3-d]pyrimidine-5-carboxamide]	10 to 100 nM	–
Cc1ccccc1CCNC(=O)c1c(C)oc2ncnc(NC3(C)CC3)c12 [Example 236, 6-Methyl-4-[(1-methylcyclopropyl)amino]-N-[2-(2-methylphenyl)ethyl]furo[2,3-d]pyrimidine-5-carboxamide]	10 to 100 nM	–
Cc1ccc(CNC(=O)c2c(C)oc3ncnc(NC4(C)CC4)c23)cc1C [Example 237, N-[(3,4-Dimethylphenyl)methyl]-6-methyl-4-[(1-methylcyclopropyl)amino]furo[2,3-d]pyrimidine-5-carboxamide]	–	>8
Cc1cccc(CNC(=O)c2c(C)oc3ncnc(NC4(C)CC4)c23)c1C [Example 238, N-[(2,3-Dimethylphenyl)methyl]-6-methyl-4-[(1-methylcyclopropyl)amino]furo[2,3-d]pyrimidine-5-carboxamide]	–	>8
Cc1oc2ncnc(NC3(C)CC3)c2c1C(=O)NC(C)(C)c1ccccc1 [Example 239, 6-Methyl-4-[(1-methylcyclopropyl)amino]-N-(2-phenylpropan-2-yl)furo[2,3-d]pyrimidine-5-carboxamide]	10 to 100 nM	–
COc1ccc(NC(=O)c2c(C)oc3ncnc(NC4(C)CC4)c23)c(C)c1 [Example 244, N-(4-Methoxy-2-methylphenyl)-6-methyl-4-[(1-methylcyclopropyl)amino]furo[2,3-d]pyrimidine-5-carboxamide]	10 to 100 nM	–
COc1cccc(CNC(=O)c2c(C)oc3ncnc(NC4(C)CC4)c23)c1 [Example 246, N-[(3-Methoxyphenyl)methyl]-6-methyl-4-[(1-methylcyclopropyl)amino]furo[2,3-d]pyrimidine-5-carboxamide]	10 to 100 nM	–
Cc1oc2ncnc(NC3(C)CC3)c2c1C(=O)N(C)Cc1ccc(F)cc1 [Example 248, N-[(4-Fluorophenyl)methyl]-N,6-dimethyl-4-[(1-methylcyclopropyl)amino]furo[2,3-d]pyrimidine-5-carboxamide]	10 to 100 nM	–
Cc1oc2ncnc(NC3(C)CC3)c2c1C(=O)N(C)Cc1ccccc1F [Example 249, N-[(2-Fluorophenyl)methyl]-N,6-dimethyl-4-[(1-methylcyclopropyl)amino]furo[2,3-d]pyrimidine-5-carboxamide]	10 to 100 nM	–
Cc1oc2ncnc(NC3(C)CC3)c2c1C(=O)N(C)Cc1cccc(F)c1 [Example 250, N-[(3-Fluorophenyl)methyl]-N,6-dimethyl-4-[(1-methylcyclopropyl)amino]furo[2,3-d]pyrimidine-5-carboxamide]	10 to 100 nM	–
CCc1cc(CN(C)C(=O)c2c(C)oc3ncnc(NC4(C)CC4)c23)on1 [Example 251, N-[(3-Ethyl-1,2-oxazol-5-yl)methyl]-N,6-dimethyl-4-[(1-methylcyclopropyl)amino]furo[2,3-d]pyrimidine-5-carboxamide]	10 to 100 nM	–
COc1cc(NC(=O)c2c(C)oc3ncnc(NC4(C)CC4)c23)ccc1F [Example 253, N-(4-Fluoro-3-methoxyphenyl)-6-methyl-4-[(1-methylcyclopropyl)amino]furo[2,3-d]pyrimidine-5-carboxamide]	10 to 100 nM	–
Cc1oc2ncnc(NC3(C)CC3)c2c1C(=O)NCc1ccccc1Cl [Example 254, N-[(2-Chlorophenyl)methyl]-6-methyl-4-[(1-methylcyclopropyl)amino]furo[2,3-d]pyrimidine-5-carboxamide]	10 to 100 nM	–
Cc1ccc(Cl)c(NC(=O)c2c(C)oc3ncnc(NC4(C)CC4)c23)c1 [Example 256, N-(2-Chloro-5-methylphenyl)-6-methyl-4-[(1-methylcyclopropyl)amino]furo[2,3-d]pyrimidine-5-carboxamide]	10 to 100 nM	–
COCCN1CCN(C(=O)c2c(C)oc3ncnc(NC4(C)CC4)c23)CC1 [Example 260, 5-[4-(2-Methoxyethyl)piperazine-1-carbonyl]-6-methyl-N-(1-methylcyclopropyl)furo[2,3-d]pyrimidin-4-amine]	100 to 1000 nM	–
Cc1oc2ncnc(NC3(C)CC3)c2c1C(=O)Nc1ccc2c(cnn2C)c1 [Example 262, 6-Methyl-N-(1-methyl-1H-indazol-5-yl)-4-[(1-methylcyclopropyl)amino]furo[2,3-d]pyrimidine-5-carboxamide]	10 to 100 nM	–
Cc1oc2ncnc(NC3(C)CC3)c2c1C(=O)Nc1ccc2scnc2c1 [Example 263, N-(1,3-Benzothiazol-5-yl)-6-methyl-4-[(1-methylcyclopropyl)amino]furo[2,3-d]pyrimidine-5-carboxamide]	10 to 100 nM	–
